Measurements from US20210147498A1, “USE OF GRAM-NEGATIVE LYSIN-ANTIMICROBIAL PEPTIDE (AMP) POLYPEPTIDE CONSTRUCTS IN PULMONARY SURFACTANT AND BIOFILMS” (priority 2018, published 2021).
Values after ≈ are worked out from the molar mass of the structure shown. Read-outs that look alike come from different tables or passages of the source.

Legend:
[1] = system: P. aeruginosa (strain WC-452); experiment: 21-day serial passage resistance assay; format: cell-based, Pseudomonas aeruginosa; conditions: CAA broth, over 18 days of serial passage
Experimental: The well with the highest concentration of GN lysin in which bacterial growth was seen was then used as the inoculum for the next day's passage, and the process was repeated over a 21 day period. The MIC at each daily time-point was recorded, and resistance was measured as a step-wise increase in MIC.

[2] = system: carbapenem-resistant P. aeruginosa strains; experiment: microbe, parasite or virus in culture; format: cell-based, Pseudomonas aeruginosa; conditions: for MIC: Pseudomonas aeruginosa; for MIC Combination / MIC Alone: vs. WC-452
Experimental: Such resensitization may be determined by combining the present lysins or lysin-AMP polypeptide constructs with an antibiotic in a checkerboard assay as described herein. Antibiotic-resistant bacteria, such as carbapenem-resistant P. aeruginosa, are added to the lysin or lysin-AMP polypeptide construct combination. […] See Clinical and Laboratory Standards Institute (CLSI), CLSI. […] M100 Performance Standards for Antimicrobial Susceptibility Testing; 29th Edition. Clinical and Laboratory Standards Institute, Wayne, Pa., which is herein incorporated by reference in its entirety.
Up to seven carbapenem-resistant isolates were assessed. […] See Clinical and Laboratory Standards Institute (CLSI), CLSI. […] M100 Performance Standards for Antimicrobial Susceptibility Testing; 29th Edition. Clinical and Laboratory Standards Institute, Wayne, Pa.

[3] = system: P. aeruginosa; experiment: MIC by modified CLSI broth microdilution in CAA media, CAA with human serum or with Survanta; format: cell-based; conditions: Pseudomonas aeruginosa
Source text: 2015. […] Clinical and Laboratory Standards Institute, Wayne, Pa.

SMILES: O=C(O)c1cn(C2CC2)c2cc(N3CCNCC3)c(F)cc2c1=O [Ciprofloxacin]
- increase of MIC during serial passage [1]: 16 fold

SMILES: C[C@@H](O)[C@H]1C(=O)N2C(C(=O)O)=C(S[C@@H]3CN[C@H](C(=O)N(C)C)C3)[C@H](C)[C@H]12 [Meropenem, meropenem]
- MIC ([2]; GN121, read-out: MIC (μg/mL) Alone, isolate PA19, checkerboard Meropenem + GN121): 32 µg/mL
- MIC ([2]; GN121, read-out: MIC (μg/mL) Alone, isolate PA20, checkerboard Meropenem + GN121): 16 µg/mL
- MIC ([2]; GN121, read-out: MIC (μg/mL) Alone, isolate PA21, checkerboard Meropenem + GN121): 32 µg/mL
- MIC ([2]; GN121, read-out: MIC (μg/mL) Alone, isolate PA22, checkerboard Meropenem + GN121): 16 µg/mL
- MIC ([2]; GN121, read-out: MIC (μg/mL) Alone, isolate PA23, checkerboard Meropenem + GN121): 16 µg/mL
- MIC ([2]; GN121, read-out: MIC (μg/mL) Alone, isolate PA24, checkerboard Meropenem + GN121): 32 µg/mL
- MIC ([2]; GN121, read-out: MIC (μg/mL) Alone, isolate WC-452, checkerboard Meropenem + GN121): 16 µg/mL
- MIC ([2]; GN123, read-out: MIC (μg/mL) Alone, isolate PA19, checkerboard MEROPENEM + GN123): 32 µg/mL
- MIC ([2]; GN123, read-out: MIC (μg/mL) Alone, isolate PA20, checkerboard MEROPENEM + GN123): 16 µg/mL
- MIC ([2]; GN123, read-out: MIC (μg/mL) Alone, isolate PA21, checkerboard MEROPENEM + GN123): 32 µg/mL
- MIC ([2]; GN123, read-out: MIC (μg/mL) Alone, isolate PA22, checkerboard MEROPENEM + GN123): 16 µg/mL
- MIC ([2]; GN123, read-out: MIC (μg/mL) Alone, isolate PA23, checkerboard MEROPENEM + GN123): 16 µg/mL
- MIC ([2]; GN123, read-out: MIC (μg/mL) Alone, isolate PA24, checkerboard MEROPENEM + GN123): 32 µg/mL
- MIC ([2]; GN123, read-out: MIC (μg/mL) Alone, isolate WC-452, checkerboard MEROPENEM + GN123): 16 µg/mL
- susceptibility category of the isolate, carbapenem Alone ([2]; isolate PA19): (R) ((R) = resistant)
- MIC (μg/mL) Combination ([2]; isolate PA19, MEROPENEM combined with GN123): 0.5 µg/mL
- MIC (μg/mL) Combination ([2]; isolate PA19, Meropenem combined with GN121): 1 µg/mL
- susceptibility category of the isolate, carbapenem in Combination ([2]; isolate PA19, combined with GN123): (S) ((S) = sensitive)
- susceptibility category of the isolate, carbapenem Alone ([2]; isolate PA20): (R) ((R) = resistant)
- MIC (μg/mL) Combination ([2]; isolate PA20, MEROPENEM combined with GN123): 0.5 µg/mL
- MIC (μg/mL) Combination ([2]; isolate PA20, Meropenem combined with GN121): 1 µg/mL
- susceptibility category of the isolate, carbapenem in Combination ([2]; isolate PA20, combined with GN123): (S) ((S) = sensitive)
- susceptibility category of the isolate, carbapenem Alone ([2]; isolate PA21): (R) ((R) = resistant)
- MIC (μg/mL) Combination ([2]; isolate PA21, MEROPENEM combined with GN123): 1 µg/mL
- MIC (μg/mL) Combination ([2]; isolate PA21, Meropenem combined with GN121): 2 µg/mL
- susceptibility category of the isolate, carbapenem in Combination ([2]; isolate PA21, combined with GN123): (S) ((S) = sensitive)
- susceptibility category of the isolate, carbapenem Alone ([2]; isolate PA22): (R) ((R) = resistant)
- MIC (μg/mL) Combination ([2]; isolate PA22, MEROPENEM combined with GN123): 1 µg/mL
- MIC (μg/mL) Combination ([2]; isolate PA22, Meropenem combined with GN121): 1 µg/mL
- susceptibility category of the isolate, carbapenem in Combination ([2]; isolate PA22, combined with GN123): (S) ((S) = sensitive)
- susceptibility category of the isolate, carbapenem Alone ([2]; isolate PA23): (R) ((R) = resistant)
- MIC (μg/mL) Combination ([2]; isolate PA23, MEROPENEM combined with GN123): 0.5 µg/mL
- MIC (μg/mL) Combination ([2]; isolate PA23, Meropenem combined with GN121): 2 µg/mL
- susceptibility category of the isolate, carbapenem in Combination ([2]; isolate PA23, combined with GN123): (S) ((S) = sensitive)
- susceptibility category of the isolate, carbapenem Alone ([2]; isolate PA24): (R) ((R) = resistant)
- MIC (μg/mL) Combination ([2]; isolate PA24, MEROPENEM combined with GN123): 2 µg/mL
- MIC (μg/mL) Combination ([2]; isolate PA24, Meropenem combined with GN121): 1 µg/mL
- susceptibility category of the isolate, carbapenem in Combination ([2]; isolate PA24, combined with GN123): (S) ((S) = sensitive)
- susceptibility category of the isolate, carbapenem Alone ([2]; isolate WC-452): (R) ((R) = resistant)
- MIC (μg/mL) Combination ([2]; isolate WC-452, MEROPENEM combined with GN123): 1 µg/mL
- MIC (μg/mL) Combination ([2]; isolate WC-452, Meropenem combined with GN121): 1 µg/mL
- susceptibility category of the isolate, carbapenem in Combination ([2]; isolate WC-452, combined with GN123): (S) ((S) = sensitive)
- susceptibility category of the isolate, carbapenem in Combination ([2]; isolate WC-452, combined with GN351): (S) ((S) = sensitive)
- susceptibility category of the isolate, carbapenem in Combination ([2]; isolate WC-452, combined with GN370): (S) ((S) = sensitive)
- susceptibility category of the isolate, carbapenem in Combination ([2]; isolate WC-452, combined with GN428): (S) ((S) = sensitive)
- MIC Combination ([2]; MEM combined with GN351): 1 µg/mL
- MIC Combination ([2]; MEM combined with GN370): 0.5 µg/mL
- MIC Combination ([2]; MEM combined with GN428): 1 µg/mL
- MIC Alone ([2]; checkerboard MEM + GN351): 16 µg/mL
- MIC Alone ([2]; checkerboard MEM + GN428): 16 µg/mL
- MIC ([3]; ATCC17646, read-out: Meropenem MIC (μg/mL), strain CFS 1109 (ATCC 17646)): 0.5 µg/mL (≈ 1.3 µM)
- MIC ([3]; ATCC27853, read-out: Meropenem MIC (μg/mL), strain CFS 1766 (ATCC 27853)): 1 µg/mL (≈ 2.61 µM)
- MIC ([3]; PA1, read-out: Meropenem MIC (μg/mL), strain CFS 1539 (PA1)): 16 µg/mL (≈ 41.7 µM)
- MIC ([3]; read-out: Meropenem MIC (μg/mL), […]): > 32 µg/mL
- MIC ([3]; read-out: Meropenem MIC (μg/mL), strain CFS 1541 (PA3)): 8 µg/mL (≈ 20.9 µM)
- MIC ([3]; read-out: Meropenem MIC (μg/mL), strain CFS 1596 (PA26)): 0.5 µg/mL (≈ 1.3 µM)
- MIC ([3]; read-out: Meropenem MIC (μg/mL), strain CFS 1597 (PA27)): 1 µg/mL (≈ 2.61 µM)
- MIC ([3]; read-out: Meropenem MIC (μg/mL), strain CFS 1669 (PA41)): < 0.25 µg/mL
- MIC ([3]; read-out: Meropenem MIC (μg/mL), strain CFS 1674 (PA46)): 4 µg/mL (≈ 10.4 µM)
- MIC ([3]; read-out: Meropenem MIC (μg/mL), strain CFS 1675 (PA47)): 4 µg/mL (≈ 10.4 µM)
